PMC5940854, “Nitrothiophene carboxamides, a novel narrow spectrum antibacterial series: Mechanism of action and Efficacy” (Scientific Reports, 2018)
≈ marks a conversion by molar mass, not a printed value.

Key:
[1] = tested on: E. coli clinical isolates; assay: MIC on panel of E. coli clinical isolates; type: cell-based
E. coli ∆nfsA + ∆nfsB = assay: microbe, parasite or virus in culture; type: cell-based
How it was run: (§1)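 Keio-derived E. coli nitroreductase knockouts, made by phage transduction and grown in M9 medium at 3–7 × 10^5 CFU/ml, were exposed to two-fold compound dilutions (final 40–0.3 µg/mL). Growth was read at A600 for MIC.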

E. coli ∆nfsA = assay: microbe, parasite or virus in culture; type: cell-based; conditions: Escherichia coli, read-out: MIC ∆nfsA
How it was run: as §1

NfsA = target: T1, NfsA (Escherichia coli, UniProt P17117); assay: Nitroreductase activity assay, NfsA; type: biochemical, E. coli; conditions: 20 μM compound, 40 μM NADPH, 10 nM NfsA; slope of initial velocity
T1 construct: His-tag; made in house; host or cells: E. coli BL21(DE3), pET28a (pET-nfsA)
T1 sequence (P17117 whole entry): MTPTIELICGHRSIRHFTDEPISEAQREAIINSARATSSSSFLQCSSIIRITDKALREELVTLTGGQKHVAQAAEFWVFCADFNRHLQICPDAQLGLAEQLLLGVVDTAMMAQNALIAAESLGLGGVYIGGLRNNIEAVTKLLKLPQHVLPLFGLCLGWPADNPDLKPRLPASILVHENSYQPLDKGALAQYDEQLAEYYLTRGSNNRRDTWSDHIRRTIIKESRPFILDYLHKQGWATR
How it was run: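 NADPH (40 μM) oxidation by 10 nM NfsA, or NADH (40 μM) oxidation by 70 nM NfsB, against 20 μM nitro substrate in 50 mM Tris-HCl pH 7.4, 5 mM EDTA; NfsA run at 25 °C. Fluorescence decrease (ex 340/em 485 NADPH; ex 350/em 460 NADH) read every 10 s; first-90-s slopes, blank-corrected, expressed relative to nitrofurantoin with NfsB.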

## O=C(Nc1nc(-c2ccc(F)cc2)cs1)c1ccc([N+](=O)[O-])s1 [compound 15, N-(4-(4-Fluorophenyl)thiazol-2-yl)-5-nitrothiophene-2-carboxamide]
[1]; 75 E.coli clinical isolates
  MIC Range: 0.6 to 40 µg/mL
[1]; Escherichia coli, 75 E.coli clinical isolates, 50% clinical isolates
  MIC50: 1.25 µg/mL (≈ 3.58 µM)
[1]; Escherichia coli, 75 E.coli clinical isolates, 90% clinical isolates
  MIC90: 10 µg/mL (≈ 28.6 µM)
[1]; strain SEC001
  MIC: 1 µg/mL (≈ 2.86 µM)
[1]; strain SEC002
  MIC: 0.5 µg/mL (≈ 1.43 µM)
[1]; strain SEC003
  MIC: 4 µg/mL (≈ 11.4 µM)
[1]; strain SEC004
  MIC: 1 µg/mL (≈ 2.86 µM)
[1]; strain SEC005
  MIC: 0.5 µg/mL (≈ 1.43 µM)
[1]; strain SEC006
  MIC: 0.5 µg/mL (≈ 1.43 µM)
[1]; strain SEC007
  MIC: 1 µg/mL (≈ 2.86 µM)
[1]; strain SEC008
  MIC: 4 µg/mL (≈ 11.4 µM)
[1]; strain SEC011
  MIC: 0.5 µg/mL (≈ 1.43 µM)
[1]; strain SEC012
  MIC: 1 µg/mL (≈ 2.86 µM)
[1]; strain SEC013
  MIC: 2 µg/mL (≈ 5.72 µM)
[1]; strain SEC014
  MIC: 1 µg/mL (≈ 2.86 µM)
[1]; strain SEC015
  MIC: 0.5 µg/mL (≈ 1.43 µM)
[1]; strain SEC016
  MIC: 8 µg/mL (≈ 22.9 µM)
[1]; strain SEC017
  MIC: 1 µg/mL (≈ 2.86 µM)
[1]; strain SEC018
  MIC: 0.5 µg/mL (≈ 1.43 µM)
[1]; strain SEC019
  MIC: 4 µg/mL (≈ 11.4 µM)
[1]; strain SEC020
  MIC: 1 µg/mL (≈ 2.86 µM)
[1]; strain SEC021
  MIC: 0.5 µg/mL (≈ 1.43 µM)
[1]; strain SEC022
  MIC: 1 µg/mL (≈ 2.86 µM)
[1]; strain SEC023
  MIC: 0.5 µg/mL (≈ 1.43 µM)
[1]; strain SEC024
  MIC: 2 µg/mL (≈ 5.72 µM)
[1]; strain SEC025
  MIC: 4 µg/mL (≈ 11.4 µM)
[1]; strain SEC026
  MIC: 2 µg/mL (≈ 5.72 µM)
[1]; strain SEC028
  MIC: 1 µg/mL (≈ 2.86 µM)
[1]; strain SEC029
  MIC: 8 µg/mL (≈ 22.9 µM)
[1]; strain SEC031
  MIC: 8 µg/mL (≈ 22.9 µM)
[1]; strain SEC032
  MIC: 1 µg/mL (≈ 2.86 µM)
[1]; strain SEC033
  MIC: 1 µg/mL (≈ 2.86 µM)
[1]; strain SEC034
  MIC: 1 µg/mL (≈ 2.86 µM)
[1]; strain SEC035
  MIC: 8 µg/mL (≈ 22.9 µM)
[1]; strain SEC036
  MIC: 2 µg/mL (≈ 5.72 µM)
[1]; strain SEC037
  MIC: 8 µg/mL (≈ 22.9 µM)
[1]; strain SEC038
  MIC: 8 µg/mL (≈ 22.9 µM)
[1]; strain SEC039
  MIC: 4 µg/mL (≈ 11.4 µM)
[1]; strain SEC040
  MIC: 8 µg/mL (≈ 22.9 µM)
[1]; strain SEC041
  MIC: 8 µg/mL (≈ 22.9 µM)
[1]; strain SEC042
  MIC: 8 µg/mL (≈ 22.9 µM)
[1]; strain SEC043
  MIC: 8 µg/mL (≈ 22.9 µM)
[1]; strain SEC044
  MIC: 8 µg/mL (≈ 22.9 µM)
[1]; strain SEC045
  MIC: 8 µg/mL (≈ 22.9 µM)
[1]; strain SEC046
  MIC: 8 µg/mL (≈ 22.9 µM)
[1]; strain SEC047
  MIC: 8 µg/mL (≈ 22.9 µM)
[1]; strain SEC048
  MIC: 8 µg/mL (≈ 22.9 µM)
[1]; strain SEC049
  MIC: 8 µg/mL (≈ 22.9 µM)
[1]; strain SEC050
  MIC: 2 µg/mL (≈ 5.72 µM)
[1]; strain SEC051
  MIC: 2 µg/mL (≈ 5.72 µM)
[1]; strain SEC052
  MIC: 1 µg/mL (≈ 2.86 µM)
[1]; strain SEC053
  MIC: 8 µg/mL (≈ 22.9 µM)
[1]; strain SEC054
  MIC: 1 µg/mL (≈ 2.86 µM)
[1]; strain SEC055
  MIC: 1 µg/mL (≈ 2.86 µM)
[1]; strain SEC057
  MIC: 1 µg/mL (≈ 2.86 µM)
[1]; strain SEC058
  MIC: 0.5 µg/mL (≈ 1.43 µM)
[1]; strain SEC059
  MIC: 0.5 µg/mL (≈ 1.43 µM)
[1]; strain SEC060
  MIC: 0.5 µg/mL (≈ 1.43 µM)
[1]; strain SEC061
  MIC: 2 µg/mL (≈ 5.72 µM)
[1]; strain SEC062
  MIC: 2 µg/mL (≈ 5.72 µM)
[1]; strain SEC063
  MIC: 1 µg/mL (≈ 2.86 µM)
[1]; strain SEC064
  MIC: 1 µg/mL (≈ 2.86 µM)
[1]; strain SEC065
  MIC: 1 µg/mL (≈ 2.86 µM)
[1]; strain SEC067
  MIC: 1 µg/mL (≈ 2.86 µM)
[1]; strain SEC068
  MIC: 1 µg/mL (≈ 2.86 µM)
[1]; strain SEC069
  MIC: 1 µg/mL (≈ 2.86 µM)
[1]; strain SEC070
  MIC: 4 µg/mL (≈ 11.4 µM)
[1]; strain SEC071
  MIC: 8 µg/mL (≈ 22.9 µM)
[1]; strain SEC072
  MIC: 8 µg/mL (≈ 22.9 µM)
[1]; strain SEC073
  MIC: 8 µg/mL (≈ 22.9 µM)
[1]; strain SEC074
  MIC: 1 µg/mL (≈ 2.86 µM)
[1]; strain SEC075
  MIC: 1 µg/mL (≈ 2.86 µM)
[1]; strain SEC076
  MIC: 1 µg/mL (≈ 2.86 µM)
[1]; strain SEC077
  MIC: 0.5 µg/mL (≈ 1.43 µM)
[1]; strain SEC078
  MIC: 0.5 µg/mL (≈ 1.43 µM)
[1]; strain SEC079
  MIC: 1 µg/mL (≈ 2.86 µM)
[1]; strain SEC080
  MIC: 1 µg/mL (≈ 2.86 µM)
E. coli ∆nfsA + ∆nfsB; Escherichia coli, read-out: MIC ∆nfsA + ∆nfsB
  MIC: > 40 µg/mL
E. coli ∆nfsA + ∆nfsB; ΔnfsA and ΔnfsB double knockout strain
  antibacterial activity in double knockout (in words): completely inactive
E. coli ∆nfsA
  MIC: 0.6 µg/mL (≈ 1.72 µM)
NfsA
  NfsA activity (rate of compound conversion): 2.05 µM/min
